{
  "source": "EPA's ToxValDB 9.5 (doi:10.2903/j.efsa.2010.1692)",
  "key": {"Lymnaea stagnalis": {"test_system": "Lymnaea stagnalis", "details": "chronic/long-term; duration: 41 days"}, "Chrysoperla externa": {"test_system": "Chrysoperla externa", "details": "not reported; mortality"}, "Apis mellifera": {"test_system": "Apis mellifera", "details": "acute; duration: 48 hours; oral; unspecified; mortality"}, "Pimephales promelas": {"test_system": "Pimephales promelas", "details": "chronic/long-term; duration: 32 days"}, "Tagia sp.": {"test_system": "Tagia sp.", "details": "acute; mortality"}, "Anas platyrhynchos": {"test_system": "Anas platyrhynchos", "details": "short-term; oral; feed; mortality"}, "Aphidius rhopalosiphi": {"test_system": "Aphidius rhopalosiphi", "details": "not reported; reproduction"}, "Lepomis macrochirus": {"test_system": "Lepomis macrochirus", "details": "acute; duration: 96 hours; mortality"}, "Oncorhynchus mykiss": {"test_system": "Oncorhynchus mykiss", "details": "acute; duration: 96 hours; mortality"}},
  "data": [
    {"compound": "COc1cc(OC)nc(Oc2cccc(Oc3nc(OC)cc(OC)n3)c2C(=O)[O-])n1.[Na+]", "note": "[Bispyribac-sodium]", "values": [
      {"measurement": "NOEC", "setting": "Lymnaea stagnalis", "result": "≥ 10", "unit": "mg/L"},
      {"measurement": "LEL", "setting": "Chrysoperla externa", "result": 30, "unit": "g/ha"},
      {"measurement": "LD50", "setting": "Apis mellifera", "result": "> 141", "unit": "µg/piece"},
      {"measurement": "NOEC", "setting": "Pimephales promelas", "result": "≥ 10", "unit": "mg/L"},
      {"measurement": "LC50", "setting": "Tagia sp.", "result": "> 957", "unit": "mg/kg"},
      {"measurement": "LC50", "setting": "Anas platyrhynchos", "result": "> 2060", "unit": "mg/kg"},
      {"measurement": "LEL", "setting": "Aphidius rhopalosiphi", "result": 3, "unit": "g/ha"},
      {"measurement": "LC50", "setting": "Coturnix coturnix; acute, oral, diet, mortality", "result": "> 2080", "unit": "mg/kg"},
      {"measurement": "LD50", "setting": "Coturnix coturnix; acute, oral, mortality", "result": "> 2250", "unit": "mg/kg"},
      {"measurement": "NOEC", "setting": "Coturnix coturnix; reproduction developmental, reproduction", "result": 116, "unit": "mg/kg-day"},
      {"measurement": "LC50", "setting": "Lepomis macrochirus", "result": "> 95", "unit": "mg/L"},
      {"measurement": "LC50", "setting": "Oncorhynchus mykiss", "result": "> 95", "unit": "mg/L"},
      {"measurement": "LD50", "setting": "Rattus norvegicus; acute, oral, mortality", "result": 2640, "unit": "mg/kg"},
      {"measurement": "NOAEL", "setting": "Rattus norvegicus; chronic, duration: 2 years, hematological", "result": 1.1, "unit": "mg/kg-day"},
      {"measurement": "NOAEC", "setting": "Rattus norvegicus; reproduction developmental, body weight", "result": 50, "unit": "mg/kg-day"},
      {"measurement": "NOAEL", "setting": "Rattus norvegicus; reproduction developmental, histopathology: nonneoplastic", "result": 1, "unit": "mg/kg-day"},
      {"measurement": "NOAEL", "setting": "Rattus norvegicus; subchronic, duration: 90 days, oral, clinical chemistry", "result": 7.2, "unit": "mg/kg-day"}
    ]}
  ]
}
